Experimental data reported in US20220256821A1, “ZEBRAFISH DELETION AND COMPOUND MUTANTS AND USES THEREOF” (The General Hospital Corporation, priority 2019, published 2022).

Tests used:
Type in all cases: in vivo, human
[1] = tested on: OVCAR-5 (EPCAM+) cancer cells; test: BiTE therapy of engrafted tumor in zebrafish; details: rag2null/null; Il2rga-/- zebrafish, co-administered with CD8+ T cells after 7 days of engraftment
Excerpt: (§1) To investigate if the rag2^null/null; Il2rga−/− animals can be used in the context of evaluating BiTE therapy efficiency, GFP-expressing OVCAR-5 (EPCAM+) cancer cells were first engrafted into mutant zebrafish. Following 7 days of engraftment, CD8+ T cells were co-administered with a control EPCAM antibody, a non-specific CD19 targeting BiTE (blinatumomab), or an EPCAM targeting BiTE (solitomab). […] In a similar experiment, animals engrafted with CD19-expressing leukemia cell line (K562-CD19) cells were killed off by coadministration of CD8+ T cells and blinatumomab (FIG. 4A-FIG. 4F).
(§2) Human cancer cells were grown to 90% confluence in a T75 cell culture flask, trypsinized, counted and resuspended at 2.5×10^7 cells/ml in Matrigel. Clondronate liposomes were added to the injection mix to inhibit early macrophage ingestion of engrafted cells over the first 7 days. […] Human CD8+ T cells, CMV-primed T cells and Car T cells were grown in 24 well plate at a density of 1×10^6 cells/ml, harvested, counted and resuspended at 5×10^7 cells/ml in T cell media. […] Cancer cell engraftment was assessed using epifluorescence whole animal microscopy (Olympus MVX10), with average GFP intensity measured using ImageJ. Growth was measured in relation to GFP intensity observed immediately after IP injection or by individual count of GFP+ cells over time. […]

[2] = tested on: CD19-expressing leukemia cell line (K562-CD19); test: BiTE therapy of engrafted leukemia cells in zebrafish; details: rag2null/null; Il2rga-/- zebrafish, coadministration of CD8+ T cells
Excerpt: as §1, §2

[3] = tested on: OVCAR-5 (zipCaspase3) cells; test: Live confocal imaging of BiTE-induced apoptosis with zipCaspase 3 reporter in zebrafish; details: administered with T cells, live confocal microscopy
Description: Next, it was investigated whether the rag2^null/null; Il2rga−/− zebrafish are able to be used to directly visualize tumor cell killing at single cell resolution following BiTE therapy in vivo. To do so, OVCAR-5 ovarian cancer cells were engineered to express a zipCaspase 3 construct, where live tumor cells constitutively express mCherry, but express zipGFP only when undergoing apoptosis (FIG. 7A-FIG. 7E).
Imaging of peri-ocular transplanted cells was performed using an inverted LSM 710 confocal microscope. Engrafted zebrafish were anesthetized using […] tricaine and placed into a 12-mm glass-bottom dish for imaging. Serial z-stack imaging was carried out using a 10× objective (NA 0.45). In vivo direct visualization of Car T-cell interaction with tumor cells, cell apoptosis with zipGFP caspase 3 reporter, and visualization of therapy target specificity was carried out by serial z-stack imaging using 405 nm (emission […]), 488 nm (emission=493-586 nm) and 546 nm laser (emission=575-703 nm). Animals were imaged at 6 dpt prior to administration of immunotherapy. […] Quantification of distance between tumor cells and Car T-cells was analysed using distance between surface and spot plugin. Images were manually annotated from Imaris files (n=100 cells per timepoint analyzed from n≥3 animals) and quantified using the Fisher's Exact Test or T-test.

Substance | overall tumor growth [1] | killing of engrafted cells [2] | cell apoptosis quantified in vivo (zipGFP) [3]
blinatumomab | did not alter overall OVCAR-5 tumor growth | killed off | –
solitomab | undergo cell killing and suppress tumor growth | – | significant induction of cell apoptosis
